Experimental data published in patent publication US20120037840A1, “USE OF MAGNETIC NANOPARTICLES TO REMOVE ENVIRONMENTAL CONTAMINANTS” (priority 2008, published 2012).
Converted amounts (≈) assume the structure as drawn.

Tests used:
[1] = cited from earlier work; for Kow: octanol-water coefficient; for log10(Kow): organic solvents used for extraction of HA-stabilized CNTs (FIG. 9)
[2] = water solubility of the HOC; cited from earlier work
[3] = Sorption kinetics of HOCs onto Mag-PCMAs from contaminated water; format: physicochemical; conditions: 20 mg/L HA; initial diuron 34.3 μmol/L
Method: Sorption kinetics of HOCs onto Mag-PCMAs from contaminated water. The HOC sorption kinetics onto Mag-PCMAs were determined by batch experiments. Aliquots (50 mg) of Mag-PCMAs were mixed in 10 ml glass tubes with 10.0 ml of an aqueous solution of each HOC. […] The caps of the tubes were lined with PTFE. The tubes were shaken at 60 rpm at 22±2° C. continuously. At the end of 5, 10, 20, 30, 45, 60, 90, 120, 180, 200, 360, 720, and 1440 minutes, one tube was taken out. A magnet was then used to separate the Mag-PCMAs from the aqueous phase. […] 1.0 ml of the supernatant was taken for HOC analysis on a high performance liquid chromatography (HPLC). The amount of HOC sorbed was calculated as the difference between the initial and final HOC mass in aqueous phase. To order to investigate the effect of the presence of HA on HOC sorption kinetics, diuron sorption kinetics were determined in the presence of 20 mg/L HA (organic carbon content), an environmental relevant HA concentration.^29 The initial diuron concentration was 34.3 μmol/L.

[4] = benzalkonium chloride concentration of 6.0 g/L; cited from earlier work

| Compound | Kow [1] | Solubility [2] | log10(Kow) [1] | also measured |
| --- | --- | --- | --- | --- |
| CCNc1nc(Cl)nc(NC(C)C)n1 [Atrazine, 2-chloro-4-ethylamino-6-isopropylamino-1,3,5-triazine] | 416 | – | – | – |
| c1ccc(-c2ccccc2)cc1 [Biphenyl, biphenyl] | 7079 | 44 µg/mL (≈ 285 µM) | – | – |
| CN(C)C(=O)Nc1ccc(Cl)c(Cl)c1 [Diuron, 3-(3,4-dichlorofenyl)-1,1-dimethylurea] | 660 | 180 µg/mL (≈ 772 µM) | – | effect of presence of HA on sorption kinetics [3]: no significant effect; solubility of diuron relative to that in absence of the surfactant [4]: about 20 times |
| c1ccc2ccccc2c1 [Naphthalene, naphthalene] | – | 225 µg/mL (≈ 1760 µM) | – | – |
| ClC=C(Cl)Cl [TCE, trichloroethene] | – | – | 2.33 | – |
| CCCCCC [hexane] | – | – | 4.00 | – |
| CCCCCCCC [octane] | – | – | 5.18 | – |
